Activity calls are given as the source filed them. The calls are words filed in the database; no cut-off is given here. Bounds are passed on as bounds.

The target of one series is T1, Muscarinic acetylcholine receptor M1 (Homo sapiens) (UniProt P11229).
T1 sequence (whole entry): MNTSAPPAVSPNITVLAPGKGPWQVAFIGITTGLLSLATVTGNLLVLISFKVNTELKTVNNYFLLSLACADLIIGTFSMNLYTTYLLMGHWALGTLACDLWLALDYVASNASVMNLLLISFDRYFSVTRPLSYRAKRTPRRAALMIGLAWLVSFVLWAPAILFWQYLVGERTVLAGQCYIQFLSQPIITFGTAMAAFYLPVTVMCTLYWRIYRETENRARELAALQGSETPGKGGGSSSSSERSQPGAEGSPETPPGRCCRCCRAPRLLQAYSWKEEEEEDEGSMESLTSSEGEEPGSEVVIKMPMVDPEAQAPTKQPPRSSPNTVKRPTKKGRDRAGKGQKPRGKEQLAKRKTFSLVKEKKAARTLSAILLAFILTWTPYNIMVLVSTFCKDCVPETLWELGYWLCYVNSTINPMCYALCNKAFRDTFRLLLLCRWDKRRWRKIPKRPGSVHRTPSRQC
Briefly: Positive allosteric modulation of human muscarinic M1 receptor expressed in CHO cells assessed as effect on acetylcholine-induced calcium mobilization by FLIPR assay. Format: functional, cell-based.
Conditions: not given
(A change in cytosolic calcium serves as a functional read-out for many receptors and channels.)
As for `O=C(O)c1cn(C/C=C/c2ccncc2)c2c(F)cccc2c1=O`, the IP came out at 610 nM.
The same measure, in the same setting: the figure for `O=C(O)c1cn(Cc2ccc3[nH]c(=O)[nH]c3c2)c2cccc(F)c2c1=O` is 617 nM; for `COc1ccccc1/C=C/Cn1cc(C(=O)O)c(=O)c2cccc(F)c21` it is greater than 10000 nM.
Same read-out and setting: the figure for `COc1ccc(/C=C/Cn2cc(C(=O)O)c(=O)c3cccc(F)c32)cc1` is 380 nM.
On the same count and under the same terms, the figure for `O=C(O)c1cn(Cc2ccc3ccccc3c2)c2c(F)ccc(F)c2c1=O` is 266 nM.
Regarding `O=C1Cc2cc(Cn3cc(C(=O)O)c(=O)c4c(F)cccc43)ccc2N1`, the IP is 81 nM.
As to `O=C(O)c1cn(C/C=C/c2cccc(F)c2)c2c(F)cccc2c1=O`, the IP came out at 370 nM.
Still for that read-out and setting: the same measure for `O=C(O)c1cn(C/C=C/c2cccnc2)c2c(F)cccc2c1=O`: greater than 10000 nM; for `O=C(O)c1cn(C/C=C/c2ccccc2)c2c(F)cccc2c1=O`: 270 nM.
In the case of `Cn1cc2cc(Cn3cc(C(=O)O)c(=O)c4c(F)cccc43)ccc2n1`, the IP came out at 142 nM.
The same measure, in the same setting: the same measure for `Cc1ccccc1/C=C/Cn1cc(C(=O)O)c(=O)c2cccc(F)c21`: greater than 10000 nM; for `Cc1ccc(/C=C/Cn2cc(C(=O)O)c(=O)c3cccc(F)c32)cc1`: 910 nM.
With `O=C(O)c1cn(Cc2ccc3ccccc3c2)c2c(F)cccc2c1=O`, the IP was determined as 80 nM.
As for `O=C(O)c1cn(Cc2ccc3ncccc3c2)c2cccc(F)c2c1=O`, the IP turned out to be 459 nM.
Consider `O=C(O)c1cn(Cc2ccc3[nH]ncc3c2)c2cccc(F)c2c1=O`, for which the IP amounted to 104 nM.
As for `CN1CCc2cc(Cn3cc(C(=O)O)c(=O)c4c(F)cccc43)ccc21`, the IP is greater than 10000 nM.
With `Cc1cccc(/C=C/Cn2cc(C(=O)O)c(=O)c3cccc(F)c32)c1`, the IP was found to be 250 nM.
As to `CN1CCCc2cc(Cn3cc(C(=O)O)c(=O)c4c(F)cccc43)ccc21`, the IP amounted to 624 nM.
On to `Cn1ncc2cc(Cn3cc(C(=O)O)c(=O)c4c(F)cccc43)ccc21`, for which the IP is 72 nM.
In the case of `CN1CCN(C)c2cc(Cn3cc(C(=O)O)c(=O)c4c(F)cccc43)ccc21`, the IP amounted to 3800 nM.
Consider `O=C(O)c1cn(Cc2ccc3ccccc3n2)c2cccc(F)c2c1=O`, for which the IP came out at 897 nM.
The same measure, in the same setting: the figure for `O=C(O)c1cn(Cc2ccc3c(c2)OCCO3)c2cccc(F)c2c1=O` is 84 nM.
For the compound `COc1cccc(/C=C/Cn2cc(C(=O)O)c(=O)c3cccc(F)c32)c1`, the IP came out at 1400 nM.
The same measure, in the same setting: the same measure for `O=C(O)c1cn(Cc2ccc3ccccc3c2)c2cccc(F)c2c1=O`: 69 nM.
Still for that read-out and setting: the same measure for `O=C(O)c1cn(C/C=C/c2ccc(F)cc2)c2c(F)cccc2c1=O`: 120 nM; for `O=C(O)c1cn(C/C=C/c2ccc(Cl)cc2)c2c(F)cccc2c1=O`: 320 nM.
On the same count and under the same terms, the figure for `O=C(O)c1cn(C/C=C/c2ccccn2)c2c(F)cccc2c1=O` is 5200 nM; for `O=C(O)c1cn(CC#Cc2ccccc2)c2c(F)cccc2c1=O` it is 3400 nM; for `O=C(O)c1cn(Cc2ccc3c(c2)CCC3O)c2cccc(F)c2c1=O` (configuration not stated) it is 97 nM.
Turning to `CN(C)c1ccc(/C=C/Cn2cc(C(=O)O)c(=O)c3cccc(F)c32)cc1`, the IP amounted to 860 nM.
Same read-out and setting: the same measure for `O=C(O)c1cn(C/C=C/c2ccccc2F)c2c(F)cccc2c1=O`: 240 nM.
Take `N#Cc1ccc(/C=C/Cn2cc(C(=O)O)c(=O)c3cccc(F)c32)cc1`: the IP was determined as 1000 nM.
`O=C(O)c1cn(Cc2nc3ccccc3s2)c2cccc(F)c2c1=O`: the IP was 1800 nM.

Another series concerns Cerebrospinal fluid. Briefly: Drug concentration in Sprague-Dawley rat cerebrospinal fluid at 10 mg/kg, po. The following applies: in vivo, read-out: Drug uptake. More on the design: dose 10 mg/kg, route oral. The format is ADME, organism-based.
Consider `Cn1ncc2cc(Cn3cc(C(=O)O)c(=O)c4c(F)cccc43)ccc21`, for which the concentration was determined as 155 nM.
Turning to `O=C(O)c1cn(Cc2ccc3c(c2)OCCO3)c2cccc(F)c2c1=O`, the concentration came out at 119 nM.
Still for that read-out and setting: the figure for `O=C(O)c1cn(Cc2ccc3ccccc3c2)c2cccc(F)c2c1=O` is 18 nM.

For the next series, the system named is Plasma. Briefly: Plasma concentration in Sprague-Dawley rat at 10 mg/kg, po. Format: ADME, organism-based. More on the design: dose 10 mg/kg, route oral. The settings on record: in vivo.
`Cn1ncc2cc(Cn3cc(C(=O)O)c(=O)c4c(F)cccc43)ccc21` gave a concentration of 13200 nM.
In the case of `O=C(O)c1cn(Cc2ccc3c(c2)OCCO3)c2cccc(F)c2c1=O`, the concentration stood at 3700 nM.
The same measure, in the same setting: the figure for `O=C(O)c1cn(Cc2ccc3ccccc3c2)c2cccc(F)c2c1=O` is 676 nM.

For another series, the target named is T1, Muscarinic acetylcholine receptor M1 (Homo sapiens). Briefly: Agonist activity at human muscarinic M1 receptor expressed in CHO cells assessed as increase of calcium mobilization at 100 uM by FLIPR assay. Format: functional, cell-based.
Conditions: not given
Regarding `O=C(O)c1cn(Cc2ccc3ccccc3c2)c2cccc(F)c2c1=O`, the result was Active.

In another series the test system is Brain. Briefly: Drug concentration in Sprague-Dawley rat barin at 10 mg/kg, po. The settings on record: in vivo, read-out: Drug uptake. The format is ADME, organism-based. More on the design: dose 10 mg/kg, route oral.
For the compound `Cn1ncc2cc(Cn3cc(C(=O)O)c(=O)c4c(F)cccc43)ccc21`, the concentration worked out at 538 nM.
On the same count and under the same terms, the same measure for `O=C(O)c1cn(Cc2ccc3c(c2)OCCO3)c2cccc(F)c2c1=O`: 577 nM.
Regarding `O=C(O)c1cn(Cc2ccc3ccccc3c2)c2cccc(F)c2c1=O`, the concentration was 178 nM.

For another series, the target named is T1, Muscarinic acetylcholine receptor M1 (Homo sapiens). Briefly: Positive allosteric modulation of human muscarinic M1 receptor expressed in CHO cells assessed as potentiation of acetylcholine-induced calcium mobilization at 1 uM by FLIPR assay relative to control. Format: functional, cell-based.
Conditions: not given
Take `O=C(O)c1cn(Cc2ccc3ccccc3c2)c2cccc(F)c2c1=O`: the fold change (FC) was found to be 100.

Test system in a further series: not listed separately
Briefly: Ratio of drug level in brain to plasma in Sprague-Dawley rat at 10 mg/kg, po. Format: ADME, organism-based. More on the design: dose 10 mg/kg, route oral.
Conditions: not given
Consider `Cn1ncc2cc(Cn3cc(C(=O)O)c(=O)c4c(F)cccc43)ccc21`, for which the partition ratio (Kp) came out at 0.04.
`O=C(O)c1cn(Cc2ccc3c(c2)OCCO3)c2cccc(F)c2c1=O`: the Kp turned out to be 0.15.
On to `O=C(O)c1cn(Cc2ccc3ccccc3c2)c2cccc(F)c2c1=O`, for which the Kp was determined as 0.26.

A word on the Kp: it is tissue or fluid exposure divided by exposure in the circulation.
